This note sets out measurements from ChEMBL document CHEMBL1154173, “L-proline-catalysed facile green protocol for the synthesis and antimycobacterial evaluation of [1,4]-thiazines” (2009).

Assay [1] has as its system Mycobacterium tuberculosis. Nature of the assay: Antimycobacterial activity against Mycobacterium tuberculosis H37Rv by agar dilution method. The assay is classed as functional. (In general: Agar dilution tests growth on a series of plates holding different concentrations.)
The subject of assay [2] is Mycolicibacterium smegmatis. Nature of the assay: Antimycobacterial activity against […] Mycobacterium smegmatis MC2 by agar dilution method. The assay is classed as functional.

Structures are written as SMILES. ≈ marks a conversion by molar mass, not a printed value.

With `CCOC(=O)C1C(c2ccc(F)cc2)N(Cc2ccccc2)C(c2ccc(F)cc2)C(C(=O)c2ccc(Cl)cc2)S1(=O)=O` (racemic), the figures for the MIC in assay [1] and in assay [2] were 5.02 µM (≈ 3.13 µg/mL) and 40.1 µM (≈ 25 µg/mL), respectively.

As to `CCOC(=O)C1C(c2cccc(F)c2)N(Cc2ccccc2)C(c2cccc(F)c2)C(C(=O)c2ccc(Cl)cc2)S1(=O)=O` (racemic), the results for the MIC in assay [1] and in assay [2] were 10 µM (≈ 6.25 µg/mL) and 40.1 µM (≈ 25 µg/mL), respectively.

Regarding `CO[C@H]1/C=C/O[C@@]2(C)Oc3c(C)c(O)c4c(O)c(c(/C=N/N5CCN(C)CC5)c(O)c4c3C2=O)NC(=O)/C(C)=C\C=C\[C@H](C)[C@H](O)[C@@H](C)[C@@H](O)[C@@H](C)[C@H](OC(C)=O)[C@@H]1C` [RIFAMPIN], the MIC in assay [1] was found to be 0.12 µM (≈ 0.0988 µg/mL).

Consider `CCOC(=O)C1C(c2ccc(C)cc2)NC(c2ccc(C)cc2)C(C(=O)c2ccc(Cl)cc2)S1(=O)=O` (racemic), for which the values for the minimum inhibitory concentration (MIC) in assay [1] and in assay [2] were 1.48 µM (≈ 0.779 µg/mL) and 2.97 µM (≈ 1.56 µg/mL), respectively.

Consider `CCOC(=O)C1C(c2ccccc2)NC(c2ccccc2)C(C(=O)c2ccc(Cl)cc2)S1(=O)=O` (racemic), for which the results for the MIC in assay [1] and in assay [2] were 12.6 µM (≈ 6.25 µg/mL) and 50.2 µM (≈ 25 µg/mL), respectively.

As to `CCOC(=O)C1C(c2ccc(Cl)cc2)N(Cc2ccccc2)C(c2ccc(Cl)cc2)C(C(=O)c2ccc(Cl)cc2)S1(=O)=O` (racemic), the figures for the minimal inhibitory concentration (MIC) in assay [1] and in assay [2] were 9.51 µM (≈ 6.25 µg/mL) and 38 µM (≈ 25 µg/mL), respectively.

The compound `NC(=O)c1cnccn1` [PYRAZINAMIDE] yielded an MIC in assay [1] of 50.8 µM (≈ 6.25 µg/mL).

For the compound `CCOC(=O)C1C(c2ccc(N(C)C)cc2)NC(c2ccc(N(C)C)cc2)C(C(=O)c2ccc(Cl)cc2)S1(=O)=O` (racemic), the MIC in assay [1] is 10.7 µM (≈ 6.25 µg/mL).

In the case of `CCOC(=O)C1C(c2ccco2)NC(c2ccco2)C(C(=O)c2ccc(Cl)cc2)S1(=O)=O` (racemic), inhibition of growth in assay [1] (MIC) required 6.55 µM (≈ 3.13 µg/mL).

As to `CCOC(=O)C1C(c2ccccc2)N(Cc2ccccc2)C(c2ccccc2)C(C(=O)c2ccc(Cl)cc2)S1(=O)=O` (racemic), the MIC in assay [1] and in assay [2] was 42.5 µM (≈ 25 µg/mL) each time.

Take `CCOC(=O)C1C(c2ccco2)N(C)C(c2ccco2)C(C(=O)c2ccc(Cl)cc2)S1(=O)=O` (racemic): the minimal inhibitory concentration (MIC) in assay [1] was found to be 6.36 µM (≈ 3.13 µg/mL); in assay [2] it was 50.8 µM (≈ 25 µg/mL).

In turn, `CCOC(=O)C1C(c2ccccc2[N+](=O)[O-])NC(c2ccccc2[N+](=O)[O-])C(C(=O)c2ccc(Cl)cc2)S1(=O)=O` (racemic) gave an MIC in assay [1] of 3.03 µM (≈ 1.78 µg/mL).

As for `CCOC(=O)C1C(c2cccc(F)c2)NC(c2cccc(F)c2)C(C(=O)c2ccc(Cl)cc2)S1(=O)=O` (racemic), the MIC in assay [1] came to 5.86 µM (≈ 3.13 µg/mL).

On to `CCOC(=O)C1C(c2cccc([N+](=O)[O-])c2)NC(c2cccc([N+](=O)[O-])c2)C(C(=O)c2ccc(Cl)cc2)S1(=O)=O` (racemic), for which the results for the MIC in assay [1] and in assay [2] were 5.32 µM (≈ 3.13 µg/mL) and 10.6 µM (≈ 6.25 µg/mL), respectively.

On to `NNC(=O)c1ccncc1` [ISONIAZID], for which the results for the MIC in assay [1] and in assay [2] were 0.36 µM (≈ 0.0494 µg/mL) and 45.6 µM (≈ 6.25 µg/mL), respectively.

`CCOC(=O)C1C(c2ccc(Cl)cc2Cl)NC(c2ccc(Cl)cc2Cl)C(C(=O)c2ccc(Cl)cc2)S1(=O)=O` (racemic) showed an MIC in assay [1] of 1.23 µM (≈ 0.782 µg/mL).

Regarding `CCOC(=O)C1C(c2ccccc2C)N(C)C(c2ccccc2C)C(C(=O)c2ccc(Cl)cc2)S1(=O)=O` (racemic), the results for the MIC in assay [1] and in assay [2] were 11.6 µM (≈ 6.25 µg/mL) and 23.1 µM (≈ 12.5 µg/mL), respectively.

Turning to `CCOC(=O)C1C(c2ccccc2)N(C)C(c2ccccc2)C(C(=O)c2ccc(Cl)cc2)S1(=O)=O` (racemic), the MIC in assay [1] is 24.4 µM (≈ 12.5 µg/mL); in assay [2], 48.8 µM (≈ 25 µg/mL).

Take `CCOC(=O)C1C(c2ccccc2OC)NC(c2ccccc2OC)C(C(=O)c2ccc(Cl)cc2)S1(=O)=O` (racemic): the MIC turned out to be 5.61 µM (≈ 3.13 µg/mL) in assay [1] and 11.2 µM (≈ 6.25 µg/mL) in assay [2].

Compound `CCOC(=O)C1C(c2ccc(C)cc2)N(C)C(c2ccc(C)cc2)C(C(=O)c2ccc(Cl)cc2)S1(=O)=O` (racemic) had a minimal inhibitory concentration (MIC) in assay [1] of 5.8 µM (≈ 3.13 µg/mL).

Regarding `CCOC(=O)C1C(c2ccc(Cl)cc2)NC(c2ccc(Cl)cc2)C(C(=O)c2ccc(Cl)cc2)S1(=O)=O` (racemic), the MIC in assay [1] came out at 2.75 µM (≈ 1.56 µg/mL); in assay [2] it was 11 µM (≈ 6.25 µg/mL).

`CCOC(=O)C1C(c2ccc(OC)cc2)N(Cc2ccccc2)C(c2ccc(OC)cc2)C(C(=O)c2ccc(Cl)cc2)S1(=O)=O` (racemic) came in with a minimal inhibitory concentration (MIC) in assay [1] of 9.64 µM (≈ 6.25 µg/mL).

With `CCOC(=O)C1C(c2ccc(C)cc2)N(Cc2ccccc2)C(c2ccc(C)cc2)C(C(=O)c2ccc(Cl)cc2)S1(=O)=O` (racemic), the MIC in assay [1] was determined as 20.3 µM (≈ 12.5 µg/mL); in assay [2] it was 40.6 µM (≈ 25 µg/mL).

Take `CC[C@@H](CO)NCCN[C@@H](CC)CO` [ETHAMBUTOL]: the MIC in assay [1] came to 7.64 µM (≈ 1.56 µg/mL).

For the compound `CCOC(=O)C1C(c2cccc([N+](=O)[O-])c2)N(C)C(c2cccc([N+](=O)[O-])c2)C(C(=O)c2ccc(Cl)cc2)S1(=O)=O` (racemic), the MIC was determined as 20.8 µM (≈ 12.5 µg/mL) in assay [1] and 41.5 µM (≈ 25 µg/mL) in assay [2].

In the case of `CCOC(=O)C1C(c2ccc(Cl)cc2)N(C)C(c2ccc(Cl)cc2)C(C(=O)c2ccc(Cl)cc2)S1(=O)=O` (racemic), the MIC was determined as 5.39 µM (≈ 3.13 µg/mL) in assay [1] and 43 µM (≈ 25 µg/mL) in assay [2].

For the compound `CCOC(=O)C1C(c2ccc([N+](=O)[O-])cc2)NC(c2ccc([N+](=O)[O-])cc2)C(C(=O)c2ccc(Cl)cc2)S1(=O)=O` (racemic), the MIC in assay [1] is 0.68 µM (≈ 0.4 µg/mL); in assay [2] it was 10.6 µM (≈ 6.25 µg/mL).

With `CCOC(=O)C1C(c2ccccc2Br)N(C)C(c2ccccc2Br)C(C(=O)c2ccc(Cl)cc2)S1(=O)=O` (racemic), the MIC in assay [1] is 9.33 µM (≈ 6.25 µg/mL); in assay [2] it was 18.7 µM (≈ 12.5 µg/mL).

Regarding `CCOC(=O)C1C(c2cccs2)NC(c2cccs2)C(C(=O)c2ccc(Cl)cc2)S1(=O)=O` (racemic), the MIC in assay [1] and in assay [2] was 12.2 µM (≈ 6.25 µg/mL) each time.

For `CCOC(=O)C1C(c2cccc3ccccc23)NC(c2cccc3ccccc23)C(C(=O)c2ccc(Cl)cc2)S1(=O)=O` (racemic), the MIC in assay [1] was 10.4 µM (≈ 6.25 µg/mL); in assay [2], 20.9 µM (≈ 12.5 µg/mL).

Consider `CCOC(=O)C1C(c2ccc(OC)cc2)NC(c2ccc(OC)cc2)C(C(=O)c2ccc(Cl)cc2)S1(=O)=O` (racemic), for which the MIC was 0.72 µM (≈ 0.402 µg/mL) in assay [1] and 1.4 µM (≈ 0.781 µg/mL) in assay [2].

Usually MIC stands for the smallest concentration in the dilution series that meets the test's criterion for growth inhibition. A high value points to a less susceptible organism.
